Series [1] deals with blood platelets. In words: Inhibition of blood platelet aggregation (aggregometer, ADP). The class given is cell-based, human (healthy testees). The settings on record: Platelet, 0.05 h; human PRP, ADP 2 to 4 μM, 3 min incubation, 37° C.; read-out: IC50 (Inhibition of blood platelet aggregation). On the procedure: Compounds according to the invention were tested for their inhibition of clumping together (aggregation) of blood platelets (thrombocytes), which is the first phase of the formation of blood clots (thrombi). Such an inhibition may prevent the formation of blood clots and inhibit the development of new thrombi after a diagnosed thrombus.
Citrate stabilized ( 0.38% of sodium citrate, final concentration) venous blood from healthy testees is used, who have not used medicine for at least 8 days. Slight centrifugation (160×g for 10 minutes) results in PRP (blood plasma rich in platelets) which is pipetted. PPP (blood plasma poor in platelets) is obtained by an intense centrifugation (3000×g for 10 minutes) of the remaining blood. The light transmission is measured by the aggregometer (CHRONOLOG). PRP allows nearly no light transmitaaion, while PPP allows complete transmission of light. The PRP is placed in the aggregometer at 37° C. while being stirred by a magnet. Addition of a pro-aggregating substance causes the PRP to aggregate gradually and an increasing light transmission takes place at the same time. At complete aggregation a light transmission corresponding to PPP is obtained. Adnosine diphosphate (ADP) is used as pro-aggregating substance, said substance representing a basic biochemical mechanism for aggregation of blood platelets. The test substances are incubated for 3 minutes in PRP placed in the aggregometer at 37° C. during magnetic stirring. A predetermined positively aggregating dosage of adenosine diphosphate (ADP) (2 to 4 μM) is then added. […] A so-called IC50 -value (that is the concentration inhibiting the aggregation by 50% relative to the control aggregation) is calculated for each test substance by linear regression analysis (log concentration μM as constant ad abscissa and % inhibition as variable ad ordinate). The following known reference substances have been used: nitroglycerine (GTN), sodium nitroprusside (NNP) and SIN-1 (the active metabolite of molsidomine).

The nature of series [2]: Maximum tolerable dose (MTD) study i.p. Type of series: in vivo, rat. The settings on record: rat, in vivo, ip; intraperitoneal, rats. On the procedure: (§1) Two tests were carried out on male rats, namely a determination of the "maximum tolerable dose" (MTD) and a test using multiple peroral doses. In addition, a LD50 test was carried out intravenously on mice.
(§2) In a MTD-test 10 animals were administered a dose of the substance once a day for a week, during which period the clinical and hematological parameters were recorded. When no signs of side effects appeared, the dose was increased in the following weeks until side effects appeared. The hemotological parameters measured were the following: the number of red and white blood cells, the number of blood platelets, the hemoglobin percentage, the hematocrit, and for the red blood cells also the average cell volume, the average cell hemoglobin content, and the average cell hemoglobin concentration. Furthermore, a differential count of the white blood cells was made.

The test system of series [3] is male rats. Description: Maximum tolerable dose (MTD) study i.p. The class given is in vivo, rat. As to conditions: i.p. The procedure: as §1, §2
Series [4] in a line: Maximum tolerable dose (MTD) study p.o. On Clinical observations: key: N.R.: nothing remarkable. On Increase in weight: key: N.R.: nothing remarkable. As to conditions: rat, in vivo, po; peroral, rats. The class given is in vivo, rat. On the procedure: as §1, §2
Series [5] has as its system male rats. In words: Maximum tolerable dose (MTD) study p.o. On Clinical observations: key: N.R.: nothing remarkable. On Increase in weight: key: N.R.: nothing remarkable. The class given is in vivo, rat. As to conditions: p.o. The procedure:
as §1, §2

The target in series [6] is T1, soluble guanylate cyclase (Homo sapiens, UniProt Q02153).
T1 construct: The guanylate cyclase activity in the supernatant after incubation with and without the test substance; endogenous in cells; host or cells: human blood platelets, supernatant of homogenate
T1 sequence (Q02153 1-619): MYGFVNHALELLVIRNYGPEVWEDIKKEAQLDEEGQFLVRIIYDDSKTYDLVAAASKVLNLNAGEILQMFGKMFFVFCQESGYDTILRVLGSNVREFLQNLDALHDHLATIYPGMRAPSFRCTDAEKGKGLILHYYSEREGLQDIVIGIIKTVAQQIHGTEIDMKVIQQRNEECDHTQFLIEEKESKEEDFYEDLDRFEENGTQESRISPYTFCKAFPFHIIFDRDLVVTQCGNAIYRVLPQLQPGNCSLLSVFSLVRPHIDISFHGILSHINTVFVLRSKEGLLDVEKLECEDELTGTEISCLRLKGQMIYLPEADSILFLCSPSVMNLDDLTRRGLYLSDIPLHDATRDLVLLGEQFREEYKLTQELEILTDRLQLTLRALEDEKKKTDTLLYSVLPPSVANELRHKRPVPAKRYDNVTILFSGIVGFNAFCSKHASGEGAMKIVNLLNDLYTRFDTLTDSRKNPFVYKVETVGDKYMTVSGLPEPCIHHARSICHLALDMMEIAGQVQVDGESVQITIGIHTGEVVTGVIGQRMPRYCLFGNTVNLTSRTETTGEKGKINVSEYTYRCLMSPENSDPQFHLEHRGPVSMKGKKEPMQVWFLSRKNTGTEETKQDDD
T1 sequence (Q02108 1-690 partner): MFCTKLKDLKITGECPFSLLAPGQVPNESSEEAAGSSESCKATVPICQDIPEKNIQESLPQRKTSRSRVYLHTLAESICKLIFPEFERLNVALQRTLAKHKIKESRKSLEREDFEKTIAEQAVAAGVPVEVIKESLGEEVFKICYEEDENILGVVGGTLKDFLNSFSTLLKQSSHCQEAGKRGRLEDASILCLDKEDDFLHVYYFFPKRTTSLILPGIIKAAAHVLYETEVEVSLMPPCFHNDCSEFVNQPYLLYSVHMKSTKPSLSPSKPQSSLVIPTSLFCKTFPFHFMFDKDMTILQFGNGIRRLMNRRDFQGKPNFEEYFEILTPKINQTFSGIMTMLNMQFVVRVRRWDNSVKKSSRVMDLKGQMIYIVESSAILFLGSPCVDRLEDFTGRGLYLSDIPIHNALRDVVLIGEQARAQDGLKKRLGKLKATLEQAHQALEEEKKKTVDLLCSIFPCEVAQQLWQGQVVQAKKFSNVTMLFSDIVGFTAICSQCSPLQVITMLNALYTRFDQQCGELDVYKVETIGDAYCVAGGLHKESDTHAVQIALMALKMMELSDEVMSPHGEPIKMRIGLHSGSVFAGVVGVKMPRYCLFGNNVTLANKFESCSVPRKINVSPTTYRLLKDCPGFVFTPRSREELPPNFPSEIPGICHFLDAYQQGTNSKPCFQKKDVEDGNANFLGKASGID
Description: Stimulation of guanylate cyclase from blood platelets (RIA). The settings on record: 37° C. Type of series: biochemical.

In series [7] the test system is pre-contracted trachea. Description: Relaxation of pre-contracted isolated trachea. The arrangement: species or system guinea pig. As to conditions: Cavia porcellus; carbamylcholine 0.3 μM, Krebs buffer, 37° C. On the procedure: Compounds according to the invention were tested for their ability to relax a pre-contracted trachea. A contraction of the respiratory passages in combination with a swelling of the mucuos membrane therein presents a vital factor at asthmatic conditions. Relaxation or dilation of the contracted respiratory passages will improve the asthmatic condition.
An isolated trachea from a guinea pig is used. After preparation of a strip which has maintained the circular musculature, the organ is divided into two parts of equal size. The two tracheal strips are suspended in their respective organ bath and connected to a transducer recording the contraction and relaxation of the organ by means of a recorder. The two tracheal strips are continuously bathed in a Krebs buffer at 37° C., constantly bubbled with carbogen (95% O2 and 5% CO2). After an equilibration time of about 3 hours the organs are tested for their sensitivity (contractility) to carbamylcholin a bolus being added directly to the bath (0.3 μM). If the contraction is satisfactory, the organs are transferred to the Krebs buffer containing the same concentration of carbamylcholine. The organs are now constantly exposed to the carbamylcholine and slowly develop a permanent contraction ("asthma"). The test substances are in bolus form added directly to the organ bath. After maximum effect (relaxation) the substances are removed by washing out and the tracheal strip reverts to its permanent contraction state. […] An EC50 -value (that is the concentration relaxing the organ by 50% relative to the maximum relaxation) is calculated for each test substance by means of a linear regression analysis (log concentration (μM) as a constant ad abscissa and % relaxation as variable ad ordinate). Sodium nitroprusside (NNP) and SIN-1 are used as reference substances.

Series [8] concerns polymorph nuclear leukocytes (PMNs), c-GMP. Description: Stimulation of c-GMP content in PMNs. The class given is cell-based, human. As to conditions: 37° C., 10 minutes. On the procedure: (§3) Compounds according to the invention were tested for their ability to increase the content of cyclic guanosine monophosphate (c-GMP), to inhibit the synthesis of the leukotriene B4 (LTB4), and to inhibit the chemotactical movement of polymorph nuclear leukocytes (PMN). The polymorph nuclear leukocytes play a vital part in the cellular part of the inflammation process. At diseases, such as asthma, the mucuos membrane of the respiratory passages is swollen as a result of an inflammation with a significant infiltration of polymorph nuclear leukocytes (PMN's) in particular. Particularly effective substances for the treatment of asthma are such which in addition to relaxing the musculature in the respiratory passages also have an anti-inflammatory effect on the cellular phase of the inflammatory process, that is inhibiting the leukocyte function.
(§4) Isolated human PMNs are incubated at 37° C. for 10 minutes, whereafter the content of cyclic guanosine monophosphate (c-GMP) is measured. Further, the synthesis of the LTB4 is determined after stimulation with Ca-ionophore (A23187) and the chemotaxis (controlled movement) towards FMLP (a substance attracting the polymorph nuclear leukocytes, PMNs) is determined.
Three compounds according to the invention and the reference substance SIN-1 were tested for their ability to stimulate the content of cyclic guanosine monophosphate (c-GMP).

For series [9], the system named is polymorph nuclear leukocytes (PMNs), LTB4 synthesis. Description: Inhibition of leukotriene B4 synthesis in PMNs after Ca-ionophore (A23187). Type of series: cell-based, human. On the procedure: as §3, §4
Series [10] deals with polymorph nuclear leukocytes (PMNs). Description: Inhibition of PMN chemotaxis towards FMLP. Type of series: cell-based, human. On the procedure: as §3, §4
[11] abbreviates: 10 mg/kg once a day for a week, relative to control.
[12] abbreviates: 20 mg/kg once a day for a week, relative to control.
Setting [13] is: 20 mg/kg once a day for a week, relative to control, hydrochloride, 20 mg/kg.
The mark [14] stands for this setting: 40 mg/kg once a day for a week, relative to control.

“Also recorded” adds a separate entry of the source. Structures can show the parent of a compound that is named as a salt.

2 compounds from patent US5405857A, “3-substituted 1,2,3,4,-oxatriazole-5-imine compounds, a process for the preparation thereof and a pharmaceutical preparation containing said compounds” (A/S GEA Farmaceutisk Fabrik, priority 1991, dated 1995) can be followed below.

A word on the IC50: it is the concentration needed to halve the response being measured. Usually MTD stands for the largest dose that counted as tolerated. On to `Cc1c(Cl)cccc1-[n+]1noc([NH-])n1` [Example 1, 3-(3-chloro-2-methylphenyl)-1,2,3,4-oxatriazole-5-imine hydrochloride], for which the IC50 in series [1] turned out to be 0.32 µM. The MTD is approximately 20 mg/kg in series [2] and 40 mg/kg in series [4]. Besides, the Clinical observations entry in series [3] (setting [11]) is “N.R”; in series [3] (setting [13]), “a passing CNS effect, where the animals a few minutes after the administration seemed nervous and hyperactive”; in series [5] (setting [11]) it was “N.R”; in [5] (setting [12]), “N.R”; in series [5] (setting [14]), “N.R”. For the same compound, the Hematological parameters result in [3] (setting [11]) was “N:R”; in series [5] (setting [11]) it was “N.R”; in series [5] (setting [12]) it was “N.R”. Besides, the Increase in weight result is “N.R” in [3] (setting [11]); “reduced” in [3] (setting [12]); “N.R” in series [5] (setting [11]); “N.R” in series [5] (setting [12]); “N.R” in [5] (setting [14]). In addition, in series [3] (setting [13]), the “Hematological parameters: neutrophilic granulocytes with toxic granulation” value is “increased number of neutrophilic granulocytes and a toxic granulation in some cells”. The “Tolerability (in words)” value in [3] (rats, up to 20 mg/kg) is “tolerated with only minor side effects”. Further, in series [5] (setting [14]), the “Hematological parameters: hemoglobin percentage (HGB)” value is on record as “reduced HGB”. Also, the “Hematological parameters: red blood cells (RBC)” value in [5] (setting [14]) is recorded as “reduced RBC”. Moreover, the “Hematological parameters: white blood cells (WBC)” value in series [5] (40 mg/kg once a day for a week, relative to control, hydrochloride, 40 mg/kg) is “increased WBC; also recorded: increased content of white blood cells”. Further, the Signs of anemia entry in series [5] (40 mg/kg, after one week) is reported as “signs of anemia”.
What is called EC50 is the concentration at which the effect is half-maximal. As to `[NH-]c1c[n+](N2CCOCC2)no1` [SIN-1, reference compound], the IC50 in [1] is 3.9 µM. Moreover, the results for the Guanylate cyclase activity in [6] (0.01 μM) and in [6] (10 μm (so in the source)) were 0 pmole c-GMP/mg prot. × 15 minutes and 59733 pmole c-GMP/mg prot. × 15 minutes, respectively. Moreover, the EC50 in series [7] was found to be 18.3 µM. Moreover, the “c-GMP in PMNs” value in series [8] (1 μM) is given as 32 fmole/10^6 cells; in [8] (10 μM), 220 fmole/10^6 cells; in [8] (100 μM), 473 fmole/10^6 cells. Besides, the “Inhibition of leukotriene B4 synthesis (in words)” value in series [9] was “also able to inhibit these leukocyte functions, but only when used in higher concentrations”. Also, the “Inhibition of PMN chemotaxis (in words)” value in series [10] is on record as “also able to inhibit these leukocyte functions, but only when used in higher concentrations”.
